Results on 11 compounds are retold here after patent US11844755B2, “Compounds and their use as therapeutically active substances in the treatment and/or reducing signs or symptoms of diseases involving the retinal pigment epithelium” (ENDOGENA THERAPEUTICS, INC., priority 2020, dated 2023).

The test system of assay [1] is iPSC-fRPE cells. In words: RPE pigmentation screen (light absorbance at 510 nm). Type of assay: cell-based, human. The note with it: test compound 5 μM in 0.1% DMSO, 32 days, relative to plate internal DMSO controls (control = 1); for fold induction at 5 µM: Homo sapiens, 768 h. On the procedure:
(§1) Induced pluripotent stem cell-derived fetal RPE (iPSC-fRPE) cells acquired from the University of California, Santa Barbara, were generated from human fetal RPE cells that were isolated and reprogramed to iPSC, then differentiated and sorted for cellular markers to collect RPE progenitors. Vials were transported frozen on dry ice and stored in −80° C.
(§2) For the phenotypic screens, iPSC-fRPE cells were thawed and cultured in Matrigel-coated flasks with N1VA media containing 1XMEM solution supplemented with 2.2 g/L Sodium Bicarbonate, 0.25 mg/ml Taurine, 0.02 ug/ml Hydrocortisone, 0.013 ug/ml Triiodo Thyronine, 0.1 ug/ml Lipoic acid, 1% MEM Non-Essential Amino Acids, 1% Penicilin/Streptomycin, 2% Neurocult SM1 supplement and 1% N1 supplement. For the initial cultures, Thiazovivin was added to the media at 2 μM for the first 24 hr of incubation, after which the media was replaced with fresh N1VA media for additional three-day incubation at 37° C. with 5% CO2.
(§3) iPSC-fRPE cells were plated with N1VA media at a density of 10,000 cells per well in Matrigel-coated 96-well plates and cultured for 24 h prior to the treatment with test compounds at a final concentration of 5 μM in 0.1% DMSO. Internal controls for each test plate were (a) 0.1% DMSO as a negative control and (b) 0.1% DMSO+10 ng/ml human recombinant bFGF (STEMCELL) as a positive control.
To identify compounds that promote RPE pigmentation, cells were maintained for a period of 32 days and treated with medium containing the test or control compounds according to the media exchange regimen (FIG. 1). The degree of pigmentation was quantified by measuring the light absorbance at 510 nm with Cytation5 imaging reader (BIOTEK). Pigmentation values are finally reported relative to plate internal DMSO controls.

The test system of assay [2] is iPSC-fRPE cells. In words: RPE cell proliferation (Hoechst 33342 live cell number). It counts as cell-based, human. The note with it: test compound 5 μM in 0.1% DMSO, fixed at Day 5, Hoechst 33342 cell number, relative to plate internal DMSO controls (control = 1); for fold induction at 5 µM: Homo sapiens, RPE, 120 h, read-out: Relative Growth. On the procedure: as §1, §2, §3
To assess proliferation of RPE cells, a replicate of compound-treated RPE cells were fixed at Day 5 and stained with Hoechst 33342 to determine live cell number with fluorescent microscopy. Cell numbers are reported relative to plate internal DMSO controls.

For “2-(chroman-3-yl)-6-(oxazol-5-yl)benzo[d]oxazole [Compound 10]”, the “Relative Pigmentation” value in assay [1] is reported as 1.71. The “Relative Growth” value in assay [2] turned out to be 1.12.

With “2-(chroman-3-yl)-6-(oxazol-5-yl)benzo[d]oxazole [Compound 11]”, the “Relative Pigmentation” value in assay [1] was determined as 6.24. Also, the “Relative Growth” value in assay [2] is recorded as 1.42.

Turning to `c1ccc2c(c1)CC(c1nc3ccc(-c4cnco4)cc3[nH]1)O2` (racemic) [Compound 3, 2-(2,3-dihydro-1-benzofuran-2-yl)-6-(1,3-oxazol-5-yl)-1H-1,3-benzodiazole], the fold induction at 5 µM was found to be 2.77 in assay [1] and 1.36 in assay [2].

With `Fc1ccc2c(c1)OCC(c1nc3ccc(-c4cnco4)cc3[nH]1)C2` (racemic) [Compound 4, 2-(7-fluoro-3,4-dihydro-2H-1-benzopyran-3-yl)-6-(1,3-oxazol-5-yl)-1H-1,3-benzodiazole], the fold induction at 5 µM was 5.08 in assay [1] and 1.78 in assay [2].

As to `Clc1ccc2c(c1)CC(c1nc3ccc(-c4cnco4)cc3[nH]1)CO2` (racemic) [Compound 5, 2-(6-chloro-3,4-dihydro-2H-1-benzopyran-3-yl)-6-(1,3-oxazol-5-yl)-1H-1,3-benzodiazole], the fold induction at 5 µM was found to be 1.04 in assay [1] and 1.52 in assay [2].

Turning to `Fc1cc(F)c2c(c1)CC(c1nc3ccc(-c4cnco4)cc3[nH]1)CO2` (racemic) [Compound 6, 2-(6,8-difluoro-3,4-dihydro-2H-1-benzopyran-3-yl)-6-(1,3-oxazol-5-yl)-1H-1,3-benzodiazole], the fold induction at 5 µM in assay [1] is 2.3; in assay [2] it was 1.42.

`Fc1cc(-c2cnco2)cc2[nH]c(C3COc4ccccc4C3)nc12` (racemic) [Compound 8, 2-(3,4-dihydro-2H-1-benzopyran-3-yl)-7-fluoro-5-(1,3-oxazool-5-yl)-1H-1,3-benzodiazole]: the fold induction at 5 µM in assay [1] came out at 2.75; in assay [2] it was 1.49.

`Fc1c(-c2cnco2)ccc2nc(C3COc4ccccc4C3)[nH]c12` (racemic) [Compound 9, 2-(3,4-dihydro-2H-1-benzopyran-3-yl)-4-fluoro-5-(1,3-oxazol-5-yl)-1H-1,3-benzodiazole]: the fold induction at 5 µM in assay [1] amounted to 4.27; in assay [2], 1.13.

Consider `c1ccc2c(c1)C[C@H](c1nc3ccc(-c4cnco4)cc3[nH]1)CO2` [Compound 1, (R)-5-(2-(chroman-3-yl)-1H-benzo[d]imidazol-6-yl)oxazole], for which the figures for the fold induction at 5 µM in assay [1] and in assay [2] were 4.98 and 1.7, respectively.

Consider `c1ccc2c(c1)C[C@@H](c1nc3ccc(-c4cnco4)cc3[nH]1)CO2` [Compound 2, (S)-5-(2-(chroman-3-yl)-1H-benzo[d]imidazol-6-yl)oxazole], for which the fold induction at 5 µM in assay [1] was determined as 1.59; in assay [2] it was 1.25.

For the compound `c1ccc2c(c1)CC(c1nc3ccc(-c4cnco4)cc3[nH]1)C2` [Compound 7, 2-(2,3-dihydro-1H-inden-2-yl)-6-(1,3-oxazolyl)-1H-1,3-benzodiazole], the fold induction at 5 µM amounted to 2.36 in assay [1] and 1.34 in assay [2].
